Assay in all cases: ≥ marks a high value that may be exact or a test limit, other limits are often not marked, values filed in µg/mL are converted to µM
Assay [1] has as its system Salmonella typhimurium CCARM 8003.
The subject of assay [2] is Escherichia coli KCTC 1682.
Assay [3] deals with Escherichia coli CCARM 1229.
Assay [4] deals with Acinetobacter baumannii KCTC 2508.
For assay [5], the system named is Escherichia coli CCARM 1238.
In assay [6] the test system is Pseudomonas aeruginosa CCARM 2095.
Assay [7] has as its system Staphylococcus aureus CCARM 3089.
Assay [8] has as its system Salmonella typhimurium CCARM 8007.
The subject of assay [9] is Staphylococcus aureus KCTC 1621.
Assay [10] deals with Staphylococcus epidermidis KCTC 1917.
Assay [11] deals with Staphylococcus aureus CCARM 3126.
For assay [12], the system named is Pseudomonas aeruginosa CCARM 2002.
Assay [13] relates to Acinetobacter baumannii CCARM 12036.
In assay [14] the test system is Bacillus subtilis KCTC 3028.
Assay [15] concerns Salmonella typhimurium KCTC 1926.
Assay [16] relates to Staphylococcus aureus CCARM 3108.
For assay [17], the system named is Acinetobacter baumannii CCARM 12035.
In assay [18] the test system is Pseudomonas aeruginosa KCTC 1637.
Assay [19] has as its system Escherichia coli ATCC 25922.
In assay [20] the test system is Candida albicans NCTC 3179.
Assay [21] deals with Staphylococcus aureus NCTC 6571.
The subject of assay [22] is Salmonella enterica subsp. enterica serovar Typhimurium ATCC BAA-215.
For assay [23], the system named is Enterococcus faecalis FA1.
Assay [24] relates to Pseudomonas aeruginosa ATCC 10145.
Assay [25] deals with Staphylococcus aureus ATCC 25923.
Assay [26] concerns Listeria monocytogenes ATCC 15313.
The subject of a further assay is Escherichia coli C25.
The subject of assay [27] is Bacillus subtilis ATCC 11774.
Assay [28] relates to Escherichia coli ATCC 12014.
For assay [29], the system named is Porphyromonas gingivalis ATCC 33277.

Converted amounts (≈) assume the structure as drawn.

For `CC[C@H](C)[C@H](NC(=O)[C@H](C)NC(=O)[C@H](CCC(=O)O)NC(=O)[C@H](Cc1cnc[nH]1)NC(=O)[C@@H](NC(=O)[C@@H]1CCCN1C(=O)[C@H](CCC(N)=O)NC(=O)[C@H](Cc1ccccc1)NC(=O)[C@@H](NC(=O)[C@H](CCCCN)NC(=O)[C@H](CCCCN)NC(=O)[C@H](CC(C)C)NC(=O)[C@H](C)NC(=O)[C@H](CC(N)=O)NC(=O)[C@H](CC(C)C)NC(=O)CN)C(C)C)[C@@H](C)CC)C(=O)N[C@@H](CCCCN)C(=O)N[C@@H](CC(C)C)C(=O)N[C@H](C(=O)N[C@@H](CC(N)=O)C(=O)N[C@@H](CC(N)=O)C(=O)N[C@@H](Cc1cnc[nH]1)C(=O)N[C@H](C(=O)N[C@@H](CCC(N)=O)C(=O)O)C(C)C)[C@@H](C)CC` [GLNALKKVFQPIHEAIKLINNHVQ], the MIC in [1] turned out to be 16 µM (≈ 43.6 µg/mL); in [2], 8 µM (≈ 21.8 µg/mL); in assay [3] it was 8 µM (≈ 21.8 µg/mL); in [4], 8 µM (≈ 21.8 µg/mL); in [5] it was 8 µM (≈ 21.8 µg/mL); in [6] it was 16 µM (≈ 43.6 µg/mL). Further, the MIC in assay [7] was at least 32 µM; in assay [8], 8 µM (≈ 21.8 µg/mL); in assay [9] it was at least 32 µM; in assay [10], at least 32 µM; in [11], at least 32 µM; in assay [12] it was 16 µM (≈ 43.6 µg/mL). In addition, the minimum inhibitory concentration (MIC) was 8 µM (≈ 21.8 µg/mL) in [13]; at least 32 µM in assay [14]; 8 µM (≈ 21.8 µg/mL) in [15]; at least 32 µM in [16]; 8 µM (≈ 21.8 µg/mL) in assay [17]; 16 µM (≈ 43.6 µg/mL) in [18].
For `CC[C@H](C)[C@H](NC(=O)[C@H](CCCN=C(N)N)NC(=O)[C@H](CCC(N)=O)NC(=O)[C@@H](NC(=O)[C@@H](NC(=O)[C@H](CCCN=C(N)N)NC(=O)[C@H](CCCCN)NC(=O)[C@H](Cc1ccccc1)NC(=O)[C@H](CCC(=O)O)NC(=O)[C@@H](N)CCCCN)[C@@H](C)CC)C(C)C)C(=O)N[C@@H](CCCCN)C(=O)N[C@@H](CC(=O)O)C(=O)N[C@@H](Cc1ccccc1)C(=O)N[C@@H](CC(C)C)C(=O)N[C@@H](CCCN=C(N)N)C(=O)N[C@@H](CC(N)=O)C(=O)N[C@@H](CC(C)C)C(=O)N[C@H](C(=O)O)C(C)C` [KEFKRIVQRIKDFLRNLV], the MIC in assay [19] was 0.912 µM (≈ 2.1 µg/mL); in assay [20], at least 36.5 µM; in [21], 3.13 µM (≈ 7.2 µg/mL).
As for `CC[C@H](C)[C@H](NC(=O)CNC(=O)[C@H](CCCN=C(N)N)NC(=O)[C@H](Cc1ccc(O)cc1)NC(=O)[C@@H](NC(=O)[C@H](CCCN=C(N)N)NC(=O)[C@H](Cc1ccccc1)NC(=O)[C@H](Cc1c[nH]c2ccccc12)NC(=O)[C@@H](N)CCCCN)C(C)C)C(=O)N[C@@H](Cc1ccc(O)cc1)C(=O)N[C@@H](CCCN=C(N)N)C(=O)N[C@@H](CCCN=C(N)N)C(=O)N[C@@H](CCCN=C(N)N)C(N)=O` [KWFRVYRGIYRRR], the MIC in assay [22] is 6.73 µM (≈ 12.5 µg/mL); in [23], at least 53.9 µM; in [24], 6.73 µM (≈ 12.5 µg/mL); in assay [25], 14 µM (≈ 26 µg/mL); in assay [26], 6.73 µM (≈ 12.5 µg/mL); in the assay with Escherichia coli C25, 7.1 µM (≈ 13.2 µg/mL). Besides, the MIC in assay [27] is at least 108 µM; in assay [28], 3.37 µM (≈ 6.25 µg/mL); in [29], 1.68 µM (≈ 3.12 µg/mL).

The values are drawn from DBAASP.
